# Key:
# [1] = molecular target: Tyrosine-protein kinase JAK1 (Homo sapiens, UniProt P23458); experiment: (§1) In Vitro Activity Assay: JAK1 (h) was incubated with 20 mM Tris/HCl pH 7.5, 0.2 mM EDTA, 500 μM […], 10 mM magnesium acetate and [γ-33P]-ATP (activity and concentration were formulated as needed). Mg/ATP mixture was added to initiate the reaction. After incubating at room temperature for 40 minutes, the reaction mixture was added with 0.5% phosphoric acid to stop the reaction. Then 10 μL reaction solution was spotted on a P30 filter pad and washed with 0.425% phosphoric acid three times and methanol once over 4 minutes, dried, and counted scintillation.
# Chain of Tyrosine-protein kinase JAK1 (P23458 whole entry): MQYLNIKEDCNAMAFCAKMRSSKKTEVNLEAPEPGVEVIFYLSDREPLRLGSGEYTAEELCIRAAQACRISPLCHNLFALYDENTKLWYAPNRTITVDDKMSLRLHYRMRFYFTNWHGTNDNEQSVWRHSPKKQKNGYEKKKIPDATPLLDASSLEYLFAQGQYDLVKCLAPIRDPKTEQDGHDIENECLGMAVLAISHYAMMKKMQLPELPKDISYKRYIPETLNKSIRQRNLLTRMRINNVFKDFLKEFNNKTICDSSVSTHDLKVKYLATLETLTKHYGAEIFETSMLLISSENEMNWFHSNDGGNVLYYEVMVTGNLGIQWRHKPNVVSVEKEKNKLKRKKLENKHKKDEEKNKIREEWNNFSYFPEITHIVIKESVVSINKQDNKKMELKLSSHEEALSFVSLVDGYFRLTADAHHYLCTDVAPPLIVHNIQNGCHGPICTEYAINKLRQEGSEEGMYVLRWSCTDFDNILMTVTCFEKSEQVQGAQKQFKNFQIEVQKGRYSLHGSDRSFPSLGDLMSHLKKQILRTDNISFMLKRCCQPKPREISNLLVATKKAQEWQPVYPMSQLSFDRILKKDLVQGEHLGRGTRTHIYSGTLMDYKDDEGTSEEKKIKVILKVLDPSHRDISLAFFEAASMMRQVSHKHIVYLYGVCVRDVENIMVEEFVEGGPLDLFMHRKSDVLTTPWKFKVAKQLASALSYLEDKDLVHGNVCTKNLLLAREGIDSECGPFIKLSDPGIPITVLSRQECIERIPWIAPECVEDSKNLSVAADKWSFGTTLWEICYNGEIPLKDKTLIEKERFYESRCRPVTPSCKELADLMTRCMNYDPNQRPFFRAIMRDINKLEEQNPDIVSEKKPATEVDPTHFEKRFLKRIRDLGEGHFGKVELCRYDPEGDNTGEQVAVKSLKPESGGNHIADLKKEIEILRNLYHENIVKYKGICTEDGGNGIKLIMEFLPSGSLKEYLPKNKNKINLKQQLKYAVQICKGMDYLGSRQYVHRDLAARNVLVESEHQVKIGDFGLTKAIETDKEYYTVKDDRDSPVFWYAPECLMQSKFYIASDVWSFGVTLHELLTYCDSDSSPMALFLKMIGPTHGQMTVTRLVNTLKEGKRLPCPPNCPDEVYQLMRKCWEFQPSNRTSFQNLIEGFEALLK
# [2] = molecular target: T1, Tyrosine-protein kinase JAK3 (Homo sapiens, UniProt P52333); experiment: as §1, with “JAK3” for “JAK1”, “8” for “20”, “MOPS” for “Tris/HCl”, “7.0,” for “7.5,”, “μL the” for “μL”, “scintillation” for “scintillation.”
# T1 sequence (P52333 whole entry): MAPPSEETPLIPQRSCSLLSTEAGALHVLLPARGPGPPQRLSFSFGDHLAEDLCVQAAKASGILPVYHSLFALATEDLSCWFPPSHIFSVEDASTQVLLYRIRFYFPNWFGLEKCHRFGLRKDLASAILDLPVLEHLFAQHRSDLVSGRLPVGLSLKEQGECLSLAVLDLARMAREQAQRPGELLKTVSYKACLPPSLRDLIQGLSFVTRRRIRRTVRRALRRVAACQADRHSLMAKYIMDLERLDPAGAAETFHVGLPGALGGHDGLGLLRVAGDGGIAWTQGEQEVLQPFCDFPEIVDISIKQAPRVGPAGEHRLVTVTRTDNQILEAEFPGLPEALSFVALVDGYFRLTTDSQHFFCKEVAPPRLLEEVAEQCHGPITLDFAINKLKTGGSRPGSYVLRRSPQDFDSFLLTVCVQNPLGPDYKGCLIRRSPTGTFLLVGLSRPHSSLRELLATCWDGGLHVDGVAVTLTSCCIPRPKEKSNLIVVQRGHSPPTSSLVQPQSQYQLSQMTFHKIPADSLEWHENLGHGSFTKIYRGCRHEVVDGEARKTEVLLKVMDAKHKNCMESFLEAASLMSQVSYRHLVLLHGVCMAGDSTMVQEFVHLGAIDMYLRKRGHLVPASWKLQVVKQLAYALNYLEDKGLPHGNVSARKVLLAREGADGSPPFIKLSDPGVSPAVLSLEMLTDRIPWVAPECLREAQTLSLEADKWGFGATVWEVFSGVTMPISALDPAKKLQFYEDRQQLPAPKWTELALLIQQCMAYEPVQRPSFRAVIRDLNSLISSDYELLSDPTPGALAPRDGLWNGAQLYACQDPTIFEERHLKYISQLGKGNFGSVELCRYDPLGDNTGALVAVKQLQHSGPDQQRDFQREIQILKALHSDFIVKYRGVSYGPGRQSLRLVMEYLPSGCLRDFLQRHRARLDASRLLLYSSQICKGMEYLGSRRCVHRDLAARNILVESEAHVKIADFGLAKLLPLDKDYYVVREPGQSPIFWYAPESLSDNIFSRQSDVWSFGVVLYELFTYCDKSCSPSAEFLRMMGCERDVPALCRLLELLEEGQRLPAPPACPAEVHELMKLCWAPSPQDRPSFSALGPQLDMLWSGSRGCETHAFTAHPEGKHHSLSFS
# [3] = molecular target: Tyrosine-protein kinase JAK2 (Homo sapiens, UniProt O60674); experiment: In Vitro Activity Assay: JAK2 (h) and 8 mM MOPS pH 7.0, 0.2 mM EDTA, 100M KTFCGTPEYLAPEVRREPRILSEEEQEMFRDFDYIADWC, 10 mM magnesium acetate and [γ-33P]-ATP (activity and concentration were formulated as needed) were incubated together. Mg/ATP mixture was added to initiate the reaction. After incubating at room temperature for 40 minutes, the reaction mixture was added with 0.5% phosphoric acid to …
# Chain of Tyrosine-protein kinase JAK2 (O60674 whole entry): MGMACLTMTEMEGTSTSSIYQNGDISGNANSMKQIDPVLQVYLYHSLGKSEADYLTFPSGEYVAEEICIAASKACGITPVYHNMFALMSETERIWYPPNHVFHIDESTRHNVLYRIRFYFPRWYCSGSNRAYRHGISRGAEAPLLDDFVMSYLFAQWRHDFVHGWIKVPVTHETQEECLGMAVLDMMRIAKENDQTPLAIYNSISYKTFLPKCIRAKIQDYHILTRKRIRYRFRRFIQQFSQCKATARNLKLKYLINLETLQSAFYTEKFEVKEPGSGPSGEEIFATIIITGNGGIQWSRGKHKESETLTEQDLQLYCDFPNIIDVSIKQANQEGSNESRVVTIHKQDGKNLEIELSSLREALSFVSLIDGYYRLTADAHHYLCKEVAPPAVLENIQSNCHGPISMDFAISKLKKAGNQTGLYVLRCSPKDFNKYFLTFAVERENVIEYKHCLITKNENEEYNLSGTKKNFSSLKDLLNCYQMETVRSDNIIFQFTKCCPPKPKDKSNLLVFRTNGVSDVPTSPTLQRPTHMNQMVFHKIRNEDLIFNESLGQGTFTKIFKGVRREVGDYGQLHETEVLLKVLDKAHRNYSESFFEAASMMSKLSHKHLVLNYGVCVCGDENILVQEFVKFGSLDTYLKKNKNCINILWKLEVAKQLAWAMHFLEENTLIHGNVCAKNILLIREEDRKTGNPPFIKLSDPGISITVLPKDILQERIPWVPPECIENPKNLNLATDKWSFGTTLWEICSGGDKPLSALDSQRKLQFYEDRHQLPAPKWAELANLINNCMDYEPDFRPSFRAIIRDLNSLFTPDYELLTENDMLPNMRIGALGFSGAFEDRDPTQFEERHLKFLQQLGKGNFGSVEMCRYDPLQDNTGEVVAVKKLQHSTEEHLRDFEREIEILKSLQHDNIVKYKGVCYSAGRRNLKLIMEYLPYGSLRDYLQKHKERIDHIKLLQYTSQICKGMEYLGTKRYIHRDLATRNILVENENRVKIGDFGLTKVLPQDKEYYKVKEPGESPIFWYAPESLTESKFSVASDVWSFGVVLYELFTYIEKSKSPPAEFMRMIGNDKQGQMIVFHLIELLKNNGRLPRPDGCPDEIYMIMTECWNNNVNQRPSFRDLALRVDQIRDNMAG
# [4] = molecular target: Non-receptor tyrosine-protein kinase TYK2 (Homo sapiens, UniProt P29597); experiment: as §1, with “TYK2” for “JAK1”, “8” for “20”, “MOPS” for “Tris/HCl”, “7.0,” for “7.5,”, “250” for “500”, “reaction” for “reaction solution”
# Chain of Non-receptor tyrosine-protein kinase TYK2 (P29597 whole entry): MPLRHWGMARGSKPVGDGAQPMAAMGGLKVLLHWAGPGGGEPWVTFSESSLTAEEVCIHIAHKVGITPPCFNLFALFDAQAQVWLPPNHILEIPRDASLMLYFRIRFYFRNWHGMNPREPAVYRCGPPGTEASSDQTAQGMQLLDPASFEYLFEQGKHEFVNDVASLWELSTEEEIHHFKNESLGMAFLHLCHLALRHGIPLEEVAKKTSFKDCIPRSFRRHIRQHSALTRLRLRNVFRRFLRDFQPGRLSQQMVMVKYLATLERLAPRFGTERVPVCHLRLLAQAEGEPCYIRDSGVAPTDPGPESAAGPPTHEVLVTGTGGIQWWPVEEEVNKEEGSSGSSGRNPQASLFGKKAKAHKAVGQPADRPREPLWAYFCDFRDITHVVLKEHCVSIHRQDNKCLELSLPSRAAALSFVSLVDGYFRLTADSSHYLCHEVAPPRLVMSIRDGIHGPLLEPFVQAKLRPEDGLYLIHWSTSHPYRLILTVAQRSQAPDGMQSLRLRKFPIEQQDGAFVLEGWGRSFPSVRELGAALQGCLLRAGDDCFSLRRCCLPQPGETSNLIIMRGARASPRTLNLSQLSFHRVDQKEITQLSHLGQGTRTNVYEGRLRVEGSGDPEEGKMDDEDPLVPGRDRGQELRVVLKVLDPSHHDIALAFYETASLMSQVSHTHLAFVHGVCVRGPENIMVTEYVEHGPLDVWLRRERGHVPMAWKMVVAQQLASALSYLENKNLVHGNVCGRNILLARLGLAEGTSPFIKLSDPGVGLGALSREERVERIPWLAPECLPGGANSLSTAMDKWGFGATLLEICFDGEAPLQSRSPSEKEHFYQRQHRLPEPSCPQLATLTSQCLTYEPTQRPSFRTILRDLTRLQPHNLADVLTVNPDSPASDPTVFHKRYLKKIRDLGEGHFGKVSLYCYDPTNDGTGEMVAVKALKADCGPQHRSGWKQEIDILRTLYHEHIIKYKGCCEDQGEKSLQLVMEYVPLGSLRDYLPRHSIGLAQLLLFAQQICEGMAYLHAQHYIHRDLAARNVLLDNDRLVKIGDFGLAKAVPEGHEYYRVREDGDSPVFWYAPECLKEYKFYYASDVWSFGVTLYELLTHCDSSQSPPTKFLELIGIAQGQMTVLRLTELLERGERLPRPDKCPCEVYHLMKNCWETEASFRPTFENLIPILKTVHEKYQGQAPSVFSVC
IC50 [1],IC50 [2],IC50 [3],IC50 [4],Structure (SMILES)
182 nM,> 10000 nM,1380 nM,–,N#CC1(C(=O)NC2CC=C(c3cccc4nc(NC(=O)C5CC5)nn34)CC2)CC1 (configuration not stated)
209 nM,> 10000 nM,1160 nM,729 nM,CC1(C(=O)NC2CC=C(c3cccc4nc(NC(=O)C5CC5)nn34)CC2)CC1(F)F (configuration not stated)

# Reference: ChEMBL document CHEMBL5729289, “JAK inhibitor and use thereof” (2022)
